Test results as given in PubChem BioAssay AID328 (DTP/NCI, 2004).
Values joined by “and” are separate entries in the source; they are usually repeats but may differ in a detail not shown here. Identical values can stand only once. Inconclusive results and toxic doses are left out.

Tested on: BDF1 mice, P388 leukemia ip, median survival T/C
Experiment: NCI In Vivo Anticancer Drug Screen. Data for tumor model P388 Leukemia (intraperitoneal) in B6D2F1 (BDF1) mice
Conditions: endpoint: median survival time, higher = longer survival
Protocol: The antitumor activity of compounds was measured in mice bearing transplantable tumors. Survival or tumor size were measured and the results are expressed as the measurement made in the treated group (T) divided by the measurement made in the vehicle treated control group (C). The tumor model used in this assay is P388 Leukemia (intraperitoneal) in B6D2F1 (BDF1) mice

[1] = dose: 100.0 mg/kg/injection, schedule: Q04DX003 (ip), vehicle: saline with Tween-80
[2] = dose: 200.0 mg/kg/injection, schedule: Q04DX003 (ip), vehicle: saline with Tween-80
[3] = dose: 400.0 mg/kg/injection, schedule: Q04DX003 (ip), vehicle: saline with Tween-80
[4] = dose: 12.5 mg/kg/injection, schedule: Q04DX003 (ip), vehicle: saline with Tween-80
[5] = dose: 25.0 mg/kg/injection, schedule: Q04DX003 (ip), vehicle: saline with Tween-80

Compound: C/C=C(\C)C(=O)OC1C(C)C2(O)C(C=C(CO)CC3(O)C(=O)C(C)=CC32)C2C(C)(C)C12OC(=O)CCCCCCCCC (stereo unspecified)
- T/C (dose: 0.01 mg/kg/injection, schedule: Q01DX009 (ip), vehicle: gum acacia): 98 % of control
- T/C (dose: 0.01 mg/kg/injection, schedule: Q01DX009 (ip), vehicle: saline + alcohol): 90 % of control
- T/C (dose: 0.01 mg/kg/injection, schedule: Q01DX009 (ip), vehicle: saline with Tween-80): 118 % of control
- T/C (dose: 0.02 mg/kg/injection, schedule: Q01DX009 (ip), vehicle: gum acacia): 93 % of control
- T/C (dose: 0.03 mg/kg/injection, schedule: Q01DX009 (ip), vehicle: Klucel (hydroxypropylcellulose) (HPC)): 110 % of control
- T/C (dose: 0.03 mg/kg/injection, schedule: Q01DX009 (ip), vehicle: gum acacia): 111 % of control
- T/C (dose: 0.03 mg/kg/injection, schedule: Q01DX009 (ip), vehicle: saline + alcohol): 93 % of control and 108 % of control
- T/C (dose: 0.06 mg/kg/injection, schedule: Q01DX009 (ip), vehicle: Klucel (hydroxypropylcellulose) (HPC)): 112 % of control
- T/C (dose: 0.06 mg/kg/injection, schedule: Q01DX009 (ip), vehicle: saline + alcohol): 90 % of control and 108 % of control
- T/C (dose: 0.12 mg/kg/injection, schedule: Q01DX009 (ip), vehicle: Klucel (hydroxypropylcellulose) (HPC)): 112 % of control
- T/C (dose: 0.25 mg/kg/injection, schedule: Q01DX009 (ip), vehicle: Klucel (hydroxypropylcellulose) (HPC)): 112 % of control
- T/C (dose: 0.25 mg/kg/injection, schedule: Q01DX009 (ip), vehicle: saline + alcohol): 163 % of control
- T/C (dose: 0.5 mg/kg/injection, schedule: Q01DX009 (ip), vehicle: Klucel (hydroxypropylcellulose) (HPC)): 119 % of control
- T/C (dose: 1.0 mg/kg/injection, schedule: Q01DX009 (ip), vehicle: Klucel (hydroxypropylcellulose) (HPC)): 91 % of control

Compound: CC(=O)OC(C)C1C2=C(C(=O)CC1(C)O)C(=O)c1c(ccc(-c3ccc4c(c3O)C(=O)C3=C(C4=O)C(C(C)OC(C)=O)C(C)(O)CC3=O)c1O)C2=O (stereo unspecified)
- T/C (dose: 6.25 mg/kg/injection, schedule: Q01DX009 (ip), vehicle: saline with Tween-80): 122 % of control

Compound: CSc1nc2c(N)nc(N)nc2nc1C
- T/C [1]: 100 % of control
- T/C [2]: 108 % of control
- T/C [3]: 108 % of control

Compound: C=C(Cl)c1c(C)cc(C)c(CC#N)c1C
- T/C (dose: 12.5 mg/kg/injection, schedule: Q04DX003 (ip), vehicle: DMSO): 100 % of control
- T/C (dose: 25.0 mg/kg/injection, schedule: Q04DX003 (ip), vehicle: DMSO): 113 % of control
- T/C (dose: 50.0 mg/kg/injection, schedule: Q04DX003 (ip), vehicle: DMSO): 100 % of control

Compound: COc1cc2c(cc1OC(C)=O)C(=O)CCCC2
- T/C [1]: 89 % of control
- T/C [2]: 103 % of control
- T/C [3]: 99 % of control

Compound: C=CC(=O)O
- T/C (dose: 0.2 mg/kg/injection, schedule: Q01DX001 (ip), vehicle: Klucel (hydroxypropylcellulose) (HPC)): 95 % of control
- T/C (dose: 0.41 mg/kg/injection, schedule: Q01DX001 (ip), vehicle: Klucel (hydroxypropylcellulose) (HPC)): 100 % of control
- T/C (dose: 0.82 mg/kg/injection, schedule: Q01DX001 (ip), vehicle: Klucel (hydroxypropylcellulose) (HPC)): 104 % of control
- T/C (dose: 1.15 mg/kg/injection, schedule: Q04DX003 (ip), vehicle: Klucel (hydroxypropylcellulose) (HPC)): 109 % of control
- T/C (dose: 1.65 mg/kg/injection, schedule: Q01DX001 (ip), vehicle: Klucel (hydroxypropylcellulose) (HPC)): 115 % of control
- T/C (dose: 2.3 mg/kg/injection, schedule: Q04DX003 (ip), vehicle: Klucel (hydroxypropylcellulose) (HPC)): 100 % of control
- T/C (dose: 3.0 mg/kg/injection, schedule: Q01DX009 (ip), vehicle: saline): 100 % of control
- T/C (dose: 3.0 mg/kg/injection, schedule: Q04DX003 (ip), vehicle: saline sonified): 109 % of control
- T/C (dose: 4.0 mg/kg/injection, schedule: Q04DX003 (ip), vehicle: saline): 116 % of control
- T/C (dose: 4.6 mg/kg/injection, schedule: Q04DX003 (ip), vehicle: Klucel (hydroxypropylcellulose) (HPC)): 100 % of control
- T/C (dose: 6.0 mg/kg/injection, schedule: Q01DX009 (ip), vehicle: saline): 100 % of control
- T/C (dose: 6.0 mg/kg/injection, schedule: Q04DX003 (ip), vehicle: saline sonified): 172 % of control
- T/C (dose: 6.6 mg/kg/injection, schedule: Q04DX003 (ip), vehicle: Klucel (hydroxypropylcellulose) (HPC)): 109 % of control
- T/C (dose: 8.0 mg/kg/injection, schedule: Q04DX003 (ip), vehicle: saline): 122 % of control
- T/C (dose: 12.0 mg/kg/injection, schedule: Q04DX003 (ip), vehicle: saline): 122 % of control
- T/C (dose: 18.0 mg/kg/injection, schedule: Q04DX003 (ip), vehicle: saline): 122 % of control

Compound: O=C(NCC(S)c1ccc(Cl)cc1)C(F)(F)F (stereo unspecified)
- T/C (dose: 6.25 mg/kg/injection, schedule: Q04DX003 (ip), vehicle: saline with Tween-80): 100 % of control
- T/C [4]: 100 % of control
- T/C [5]: 118 % of control

Compound: Cc1ccc2nc3c4ccccc4c4ccccc4c3nc2c1
- T/C (dose: 100.0 mg/kg/injection, schedule: Q01DX009 (ip), vehicle: Klucel (hydroxypropylcellulose) (HPC)): 109 % of control
- T/C (dose: 200.0 mg/kg/injection, schedule: Q01DX009 (ip), vehicle: Klucel (hydroxypropylcellulose) (HPC)): 90 % of control
- T/C (dose: 400.0 mg/kg/injection, schedule: Q01DX009 (ip), vehicle: Klucel (hydroxypropylcellulose) (HPC)): 100 % of control

Compound: O=CN(O)CC(=O)O.[Ni]
- T/C (dose: 1.56 mg/kg/injection, schedule: Q04DX003 (ip), vehicle: saline): 90 % of control
- T/C (dose: 2.3 mg/kg/injection, schedule: Q01DX001 (ip), vehicle: saline): 105 % of control
- T/C (dose: 3.12 mg/kg/injection, schedule: Q01DX009 (ip), vehicle: saline): 120 % of control
- T/C (dose: 3.12 mg/kg/injection, schedule: Q04DX003 (ip), vehicle: saline): 109 % of control
- T/C (dose: 6.25 mg/kg/injection, schedule: Q01DX009 (ip), vehicle: saline): 115 % of control
- T/C (dose: 6.25 mg/kg/injection, schedule: Q04DX003 (ip), vehicle: saline): 109 % of control
- T/C (dose: 9.2 mg/kg/injection, schedule: Q01DX001 (ip), vehicle: saline): 95 % of control
- T/C (dose: 9.2 mg/kg/injection, schedule: Q04DX003 (ip), vehicle: saline): 100 % of control
- T/C (dose: 13.0 mg/kg/injection, schedule: Q01DX001 (ip), vehicle: saline): 113 % of control
- T/C (dose: 13.0 mg/kg/injection, schedule: Q04DX003 (ip), vehicle: saline): 109 % of control
- T/C (dose: 14.0 mg/kg/injection, schedule: Q04DX003 (ip), vehicle: saline): 109 % of control
- T/C (dose: 20.0 mg/kg/injection, schedule: Q01DX001 (ip), vehicle: saline): 113 % of control
- T/C (dose: 21.0 mg/kg/injection, schedule: Q04DX003 (ip), vehicle: saline): 118 % of control
- T/C (dose: 30.0 mg/kg/injection, schedule: Q01DX001 (ip), vehicle: saline): 113 % of control
- T/C (dose: 30.0 mg/kg/injection, schedule: Q04DX003 (ip), vehicle: saline): 113 % of control

Compound: NC(Cc1ccc(O)cc1)C(=O)OCc1ccccc1 (stereo unspecified)
- T/C [1]: 104 % of control
- T/C [2]: 104 % of control
- T/C [3]: 100 % of control

Compound: Oc1c(-c2ccccc2)cc(-[n+]2c(-c3ccccc3)cc(-c3ccc(-c4ccccc4)cc3)cc2-c2ccccc2)cc1-c1ccccc1
- T/C (dose: 25.0 mg/kg/injection, schedule: Q01DX001 (ip), vehicle: saline with Tween-80): 107 % of control
- T/C (dose: 50.0 mg/kg/injection, schedule: Q01DX001 (ip), vehicle: saline with Tween-80): 98 % of control
- T/C (dose: 100.0 mg/kg/injection, schedule: Q01DX001 (ip), vehicle: saline with Tween-80): 102 % of control

Compound: O=C1NC2NC(=O)NC2N1 (stereo unspecified)
- T/C [1]: 100 % of control
- T/C [2]: 100 % of control
- T/C [3]: 104 % of control

Compound: COc1ccc(/C(C#N)=C2C=C/C(=N\O)C(C)=C/2Cl)cc1
- T/C [4]: 91 % of control
- T/C [5]: 91 % of control
- T/C (dose: 50.0 mg/kg/injection, schedule: Q04DX003 (ip), vehicle: saline with Tween-80): 87 % of control

Compound: O=C(Nc1cccc(Cl)c1Cl)SCCSC(=O)Nc1cccc(Cl)c1Cl
- T/C (dose: 12.5 mg/kg/injection, schedule: Q01DX009 (ip), vehicle: gum acacia): 118 % of control
- T/C (dose: 25.0 mg/kg/injection, schedule: Q01DX009 (ip), vehicle: gum acacia): 100 % of control
- T/C (dose: 50.0 mg/kg/injection, schedule: Q01DX009 (ip), vehicle: gum acacia): 118 % of control
